Measurements as given in patent publication US20020001582A1, “Methods and compositions for inhibiting microbial growth” (priority 1999, published 2002).

Tests used:
[1] = test system: IM115 (Monilinia); test: Inhibition of Monilinia by lysozyme in PD broth, % plate coverage; type: cell-based
Experimental: (§1) Monilinia was grown in petri dishes on PD agar. Potato dextrose broth was prepared, poured into glass dilution bottles (100 ml each), autoclaved and allowed to cool. […] A fungal square (plug) of each culture was cut and placed in/near the center of each plate. Fungal growth was quantified by measuring the diameter of growth of each fungus while it was growing on the liquid media in each petri dish using a ruler. Each treatment was done with triplicates. The experiment was repeated three times (three batches). The observation period for each batch was 2 weeks.
(§2) The fungal growth was expressed in % coverage of the petri dishes by the fungal patches. The calculation is presented in the following equation:
(§3) Fungal growth (%)=(area of fungal patch/total plate area)×100
(§4) The average plate coverage for the treatments was plotted against the time after inoculation (FIGS. 20 and 21). Statistical analysis was carried out using SigmaStat (Version 2.0, SPSS Science, 1997).

[2] = test system: IM114 (Monilinia); test: as above; type: cell-based
Experimental: as §1, §2, §3, §4

For “lysozyme: type c egg white lysozyme, enzyme of approximately 129 amino acids; commercially available from Canadian Inovatech, Inc.”, the “concentration that can significantly inhibit the growth for at least 2 weeks” value ([1]; in general, in vitro, PD broth) was 250-500 ppm, the “concentration showing significant fungal growth reduction” value ([1]; p<0.05) was 100 ppm and the “concentration that can significantly inhibit the growth for at least 2 weeks” value ([2]; in general, in vitro, PD broth) was 250-500 ppm. The “concentration showing significant fungal growth reduction” value ([2]; p<0.05) was 100 ppm.
